Test results published in US20110237533A1, “NOVEL POLYPHENOL COMPOUND” (priority 2008, published 2011).
Read-outs that look alike come from different tables or passages of the source.

Target: T1, pancreatic lipase derived from swine (Sus scrofa, UniProt P00591)
T1 construct: purchased Sigma Ltd
T1 sequence (P00591 1-450): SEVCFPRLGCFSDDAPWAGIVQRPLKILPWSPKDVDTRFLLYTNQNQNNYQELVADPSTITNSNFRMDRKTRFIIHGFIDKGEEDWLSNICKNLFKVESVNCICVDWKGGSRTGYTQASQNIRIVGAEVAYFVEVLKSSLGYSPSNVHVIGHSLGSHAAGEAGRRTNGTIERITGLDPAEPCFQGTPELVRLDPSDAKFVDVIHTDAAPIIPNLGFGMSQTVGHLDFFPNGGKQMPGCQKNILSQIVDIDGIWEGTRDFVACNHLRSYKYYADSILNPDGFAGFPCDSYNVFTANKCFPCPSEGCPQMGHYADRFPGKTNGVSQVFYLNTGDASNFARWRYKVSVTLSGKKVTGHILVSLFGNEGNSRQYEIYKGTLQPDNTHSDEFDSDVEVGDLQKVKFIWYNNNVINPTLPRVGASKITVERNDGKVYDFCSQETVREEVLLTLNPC
Test: lipase inhibitory test (4-MUO substrate, fluorescence)
Format: biochemical
Conditions: read-out: lipase inhibitory activity (%)

inhibition at 250 µM (sample concentration 250 μM, 4-MUO substrate, 37° C., 30 minutes) [%] | SMILES | inhibition at 250 µM [%]
 | O=c1c(O)c(-c2ccc(O)c(O)c2)oc2cc(O)cc(O)c12 [quercetin] | 64.3
50 | O=C(O)c1cc(O)c(O)c(O)c1 [gallic acid] | 
